Assay results taken from PMC8286840, “Identifying SARS-CoV-2 antiviral compounds by screening for small molecule inhibitors of Nsp3 papain-like protease” (Biochemical Journal, 2021).
Where a name gives a salt, the structure may show the parent alone. Read-outs that look alike come from different tables or passages of the source.

Legend:
[1] = target: T1, SARS-CoV-2 PLpro (nsp3 1564–1878) (Severe acute respiratory syndrome coronavirus 2, UniProt P0DTD1); assay: biochemical; set-up: FRET-quenched peptide (Pro3) cleavage by PLpro, 10 min pre-incubation, slope over 20 min, normalised to no-compound control; conditions: low concentration screen, read-out: % of control remaining
[2] = target: T1, SARS-CoV-2 PLpro (nsp3 1564–1878); assay: biochemical; set-up: FRET-quenched peptide (Pro3) cleavage by PLpro, 10 min pre-incubation, slope over 20 min, normalised to no-compound control; conditions: high concentration screen, read-out: % of control remaining

`Cn1cnc2c(F)c(Nc3ccc(Br)cc3Cl)c(C(=O)NOCCO)cc21` [AZD6244] was tested, and the remaining activity at 1.25 µM ([1]; Well no.=3028) was 95.9% and the remaining activity at 3.75 µM ([2]; Well no.=3028) was 95.3%.
Work on `CC1(C)CCC2=C(O1)c1ccccc1C(=O)C2=O` yielded a remaining activity at 1.25 µM ([1]; Well no.=3375) of 95.6%, a remaining activity at 1.25 µM ([1]; Well no.=3845) of 96.1% and a remaining activity at 3.75 µM ([2]; Well no.=3375) of 84.1%. It also gave a remaining activity at 3.75 µM ([2]; Well no.=3845) of 91.8%.
Compound `CNC(=C[N+](=O)[O-])NCCSCc1csc(CN(C)C)n1` [Nizatidine] has a remaining activity at 1.25 µM ([1]; Well no.=4628) of 101%, a remaining activity at 1.25 µM ([1]; Well no.=7378) of 99.2% and a remaining activity at 3.75 µM ([2]; Well no.=4628) of 99.2%. It also gave a remaining activity at 3.75 µM ([2]; Well no.=7378) of 98.9%.
`O=C(NCCCNC(=O)c1ccc[nH]c1=O)c1cc(-c2ccccc2)on1` [ML327] was tested, and the remaining activity at 1.25 µM ([1]; Well no.=7164) was 101% and the remaining activity at 3.75 µM ([2]; Well no.=7164) was 93.7%.
`O=C(O)CCCCCCCC(=O)O` [Azelaic acid] gave a remaining activity at 1.25 µM ([1]; Well no.=243) of 100%, a remaining activity at 1.25 µM ([1]; Well no.=6157) of 108% and a remaining activity at 3.75 µM ([2]; Well no.=243) of 98.7%. The remaining activity at 3.75 µM ([2]; Well no.=6157) was 105%.
`CCC(=O)N1CCN(c2ccc(-n3c(=O)ccc4cnc5ccc(-c6cnc7ccccc7c6)cc5c43)cc2C(F)(F)F)CC1` [Torin 1] was tested, and the remaining activity at 1.25 µM ([1]; Well no.=4795) was 106% and the remaining activity at 3.75 µM ([2]; Well no.=4795) was 102%.
`NC(=O)c1ccc[n+]([C@@H]2O[C@H](COP(=O)([O-])O)[C@@H](O)[C@H]2O)c1` [_-Nicotinamide mononucleotide] showed a remaining activity at 1.25 µM ([1]; Well no.=7735) of 102% and a remaining activity at 3.75 µM ([2]; Well no.=7735) of 105%.
`O=[N+]([O-])c1cccc2c(Br)[nH]nc12` [3-Bromo-7-nitroindazole] showed a remaining activity at 1.25 µM ([1]; Well no.=27) of 98.5% and a remaining activity at 3.75 µM ([2]; Well no.=27) of 96.1%.
Compound `COC(C)(C)CCCC(C)C/C=C/C(C)=C/C(=O)O` (centres unmarked) [Methoprene acid] has a remaining activity at 1.25 µM ([1]; Well no.=4438) of 98.3% and a remaining activity at 3.75 µM ([2]; Well no.=4438) of 100%.
`CCC1(c2c[nH]cn2)Cc2ccccc2C1` [Atipamezole] showed a remaining activity at 1.25 µM ([1]; Well no.=6663) of 101% and a remaining activity at 3.75 µM ([2]; Well no.=6663) of 101%.
For `COc1ccc2c(c[n+](C)c3c4cc5c(cc4ccc23)OCO5)c1OC` [Chelerythrine chloride], the remaining activity at 1.25 µM ([1]; Well no.=28) was 92.2%, the remaining activity at 1.25 µM ([1]; Well no.=2359) was 103% and the remaining activity at 3.75 µM ([2]; Well no.=28) was 92.4%. It also gave a remaining activity at 3.75 µM ([2]; Well no.=2359) of 105%.
`O=C1CCC(c2ccc(-n3ccnc3)cc2)=NN1` [Imazodan] was tested, and the remaining activity at 1.25 µM ([1]; Well no.=764) was 97.3% and the remaining activity at 3.75 µM ([2]; Well no.=764) was 97.7%.
`CC1(C)S[C@@H]2[C@H](NC(=O)[C@H](N)c3ccccc3)C(=O)N2[C@H]1C(=O)O` [Ampicillin] gave a remaining activity at 1.25 µM ([1]; Well no.=2123) of 97.8% and a remaining activity at 3.75 µM ([2]; Well no.=2123) of 97.3%.
Compound `CCCc1nn(C)c2c(=O)[nH]c(-c3cc(S(=O)(=O)N4CCN(C)CC4)ccc3OCC)nc12` [Sildenafil citrate] has a remaining activity at 1.25 µM ([1]; Well no.=4821) of 94.7% and a remaining activity at 3.75 µM ([2]; Well no.=4821) of 94.2%.
Compound `N/C(=N\C(=O)c1nc(Cl)c(N)nc1N)NCc1ccccc1` [Benzamil hydrochloride] has a remaining activity at 1.25 µM ([1]; Well no.=267) of 95.3% and a remaining activity at 3.75 µM ([2]; Well no.=267) of 92.2%.
`COCC1(CO)C(=O)C2CCN1CC2` (centres unmarked) [PRIMA-1Met] was tested, and the remaining activity at 1.25 µM ([1]; Well no.=6212) was 101% and the remaining activity at 3.75 µM ([2]; Well no.=6212) was 99.5%.
With `COc1ccc(-n2[nH]c3c(cnc4ccccc43)c2=O)cc1` [CGS 9895] the remaining activity at 1.25 µM ([1]; Well no.=5590) was 99.6% and the remaining activity at 3.75 µM ([2]; Well no.=5590) was 96.5%.
`COc1ccc(CNc2nc(N(CCO)CCO)nc3c2ncn3C(C)C)cc1` [Cdk2 Inhibitor III] gave a remaining activity at 1.25 µM ([1]; Well no.=2416) of 107% and a remaining activity at 3.75 µM ([2]; Well no.=2416) of 110%.
For `CN1CCC(OC(c2ccccc2)c2ccccc2)CC1` [Diphenylpyraline (hydrochloride)], the remaining activity at 1.25 µM ([1]; Well no.=6853) was 100% and the remaining activity at 3.75 µM ([2]; Well no.=6853) was 102%.
`COc1c(O)cc2oc(-c3ccc(O)cc3)cc(=O)c2c1O` [5,7-dihydroxy-2-(4-hydroxyphenyl)-6-methoxy-4H-chromen-4-one] showed a remaining activity at 1.25 µM ([1]; Well no.=5542) of 101% and a remaining activity at 3.75 µM ([2]; Well no.=5542) of 102%.
Compound `COc1cc2nc(N3CCN(C(=O)c4ccco4)CC3)nc(N)c2cc1OC` [Prazosin (hydrochloride)] has a remaining activity at 1.25 µM ([1]; Well no.=6411) of 96.4% and a remaining activity at 3.75 µM ([2]; Well no.=6411) of 85.9%.
`COc1cc2ccc(=O)oc2cc1O` [Scopoletin] showed a remaining activity at 1.25 µM ([1]; Well no.=3461) of 103% and a remaining activity at 3.75 µM ([2]; Well no.=3461) of 102%.
With `N=C(N)SCCc1cccc(CCSC(=N)N)c1` [1,3-PBIT dihydrobromide] the remaining activity at 1.25 µM ([1]; Well no.=1159) was 104% and the remaining activity at 3.75 µM ([2]; Well no.=1159) was 104%.
With `CN1[C@@H]2CCC[C@H]1C[C@@H](NC(=O)c1nn(C)c3ccccc13)C2` [Granisetron (Hydrochloride)] the remaining activity at 1.25 µM ([1]; Well no.=6223) was 104% and the remaining activity at 3.75 µM ([2]; Well no.=6223) was 102%.
`CC(C)N(CCC(=O)c1ccc2ccccc2c1)Cc1ccccc1` [JAK3 Inhibitor IV] was tested, and the remaining activity at 1.25 µM ([1]; Well no.=2459) was 94% and the remaining activity at 3.75 µM ([2]; Well no.=2459) was 93.9%.
With `N=C(NCCC[C@H](N)C(=O)O)N[N+](=O)[O-]` [NG-Nitro-L-arginine] the remaining activity at 1.25 µM ([1]; Well no.=857) was 99.8% and the remaining activity at 3.75 µM ([2]; Well no.=857) was 101%.
`CCCCCCCCCCCCC/C=C/[C@@H](O)[C@@H](N)CO` [Sphingosine] gave a remaining activity at 1.25 µM ([1]; Well no.=4361) of 101%, a remaining activity at 3.75 µM ([2]; Well no.=1172) of 104% and a remaining activity at 3.75 µM ([2]; Well no.=4361) of 93.6%.
`O=C(O)CCCc1c[nH]c2ccccc12` [Indole-3-butyric acid] gave a remaining activity at 1.25 µM ([1]; Well no.=3210) of 91.8% and a remaining activity at 3.75 µM ([2]; Well no.=3210) of 98.5%.
In the case of `Cc1cc(/N=N/c2ccc(S(=O)(=O)Nc3ccccn3)cc2)c(N)cc1O` [MS436], the remaining activity at 1.25 µM ([1]; Well no.=7590) is reported as 93.3% and the remaining activity at 3.75 µM ([2]; Well no.=7590) is reported as 96.8%.
Compound `COc1cc2nc(N3CCN(C(=O)C4=CC5C=CC4CC5)CC3)nc(N)c2cc1OC` (centres unmarked) [Prazobind] has a remaining activity at 1.25 µM ([1]; Well no.=1311) of 104% and a remaining activity at 3.75 µM ([2]; Well no.=1311) of 105%.
Compound `CN/C(=N\c1ccc(C2=NNC(=O)CC2C)cc1)NC#N` (centres unmarked) [Siguazodan] has a remaining activity at 1.25 µM ([1]; Well no.=2154) of 91.7% and a remaining activity at 3.75 µM ([2]; Well no.=2154) of 94.5%.
Work on `NC(=O)c1ncn([C@@H]2O[C@H](CO)[C@@H](O)[C@H]2O)c1O` [Mizoribine] yielded a remaining activity at 1.25 µM ([1]; Well no.=876) of 105% and a remaining activity at 3.75 µM ([2]; Well no.=876) of 107%.
Compound `CCN[C@H]1C[C@H](C)S(=O)(=O)c2sc(S(N)(=O)=O)cc21` [Dorzolamide HCl] has a remaining activity at 1.25 µM ([1]; Well no.=5205) of 92.8% and a remaining activity at 3.75 µM ([2]; Well no.=5205) of 95%.
With `N#C/C(=C\c1ccc(O)c(O)c1)C(N)=S` [Tyrphostin 47] the remaining activity at 1.25 µM ([1]; Well no.=1276) was 97.8% and the remaining activity at 3.75 µM ([2]; Well no.=1276) was 99.6%.
